In PubChem BioAssay AID1745844 (Carcinogenic Potency Database (CPDB), 2022):
Activity calls are given as the source filed them. How the calls were made is not given here.

Tested on: rodent lifetime carcinogenesis bioassay, tumor incidence TD50
Assay: carcinogenic potency in animals, long-term in vivo studies, CPDB compilation (AID 1745844)
[1] = rat, strain Sprague-Dawley, females, in feed, site: any site (literature study), lesion: several types, types named in the paper, dosed 46 weeks, study length 66 weeks

O=C(O)C=Cc1ccc(O)c(O)c1
TD50 (mouse, strain B6C3F1, females, in feed, site: any site (literature study), lesion: one or several types, types not named, dosed 96 weeks, study length 96 weeks): 1900 mg/kg/day | TD50 (mouse, strain B6C3F1, females, in feed, site: forestomach, lesion: squamous-cell carcinoma, dosed 96 weeks, study length 96 weeks): 43300 mg/kg/day | TD50 (mouse, strain B6C3F1, females, in feed, site: kidney, lesion: tubular-cell adenoma, dosed 96 weeks, study length 96 weeks): 4700 mg/kg/day | TD50 (mouse, strain B6C3F1, males, in feed, site: any site (literature study), lesion: one or several types, types not named, dosed 96 weeks, study length 96 weeks): 3210 mg/kg/day | TD50 (mouse, strain B6C3F1, males, in feed, site: forestomach, lesion: papilloma, dosed 96 weeks, study length 96 weeks): 9790 mg/kg/day | TD50 (mouse, strain B6C3F1, males, in feed, site: forestomach, lesion: several types, types named in the paper, dosed 96 weeks, study length 96 weeks): 5270 mg/kg/day | TD50 (mouse, strain B6C3F1, males, in feed, site: forestomach, lesion: squamous-cell carcinoma, dosed 96 weeks, study length 96 weeks): 13300 mg/kg/day | TD50 (mouse, strain B6C3F1, males, in feed, site: lung, lesion: alveolar-cell adenoma, dosed 96 weeks, study length 96 weeks): 6110 mg/kg/day | TD50 (mouse, strain B6C3F1, males, in feed, site: lung, lesion: alveolar-cell carcinoma, dosed 96 weeks, study length 96 weeks): 41300 mg/kg/day | TD50 (mouse, strain B6C3F1, males, in feed, site: lung, lesion: several types, types named in the paper, dosed 96 weeks, study length 96 weeks): 5120 mg/kg/day | TD50 (rat, strain F344/DuCrj, females, in feed, site: any site (literature study), lesion: one or several types, types not named, dosed 104 weeks, study length 104 weeks): 312 mg/kg/day | TD50 (rat, strain F344/DuCrj, females, in feed, site: forestomach, lesion: papilloma, dosed 104 weeks, study length 104 weeks): 426 mg/kg/day | TD50 (rat, strain F344/DuCrj, females, in feed, site: forestomach, lesion: several types, types named in the paper, dosed 104 weeks, study length 104 weeks): 298 mg/kg/day | TD50 (rat, strain F344/DuCrj, females, in feed, site: forestomach, lesion: squamous-cell carcinoma, dosed 104 weeks, study length 104 weeks): 989 mg/kg/day | TD50 (rat, strain F344/DuCrj, males, in feed, site: forestomach, lesion: papilloma, dosed 104 weeks, study length 104 weeks): 377 mg/kg/day | TD50 (rat, strain F344/DuCrj, males, in feed, site: forestomach, lesion: several types, types named in the paper, dosed 104 weeks, study length 104 weeks): 272 mg/kg/day | TD50 (rat, strain F344/DuCrj, males, in feed, site: forestomach, lesion: squamous-cell carcinoma, dosed 104 weeks, study length 104 weeks): 656 mg/kg/day | TD50 (rat, strain F344/DuCrj, males, in feed, site: forestomach, lesion: squamous-cell papilloma, dosed 51 weeks, study length 52 weeks): 217 mg/kg/day | TD50 (rat, strain F344/DuCrj, males, in feed, site: forestomach, lesion: squamous-cell papilloma, dosed 60 weeks, study length 60 weeks): 542 mg/kg/day | TD50 (rat, strain F344/DuCrj, males, in feed, site: kidney, lesion: tubular-cell adenoma, dosed 104 weeks, study length 104 weeks): 3830 mg/kg/day

Nc1nc(N)nc(-c2ccc([N+](=O)[O-])o2)n1
TD50 [1]: 1.71 mg/kg/day | TD50 (rat, strain Sprague-Dawley, females, in feed, site: mammary gland, lesion: adenocarcinoma, dosed 46 weeks, study length 66 weeks): 4.49 mg/kg/day | TD50 (rat, strain Sprague-Dawley, females, in feed, site: mammary gland, lesion: several types, types named in the paper, dosed 46 weeks, study length 66 weeks): 1.71 mg/kg/day

[N]=O
carcinogen call (mouse, strain ICR/Jcl, females, inhaled, site: lung, lesion: adenoma, dosed 126 weeks, study length 126 weeks): negative (inactive)

Cc1cccc(OCC(O)CNC(C)(C)C)c1C (configuration not stated)
carcinogen call (mouse, strain B6C3F1, females, in feed, site: any site (literature study), lesion: several types, types named in the paper, dosed 82 weeks, study length 92 weeks): negative (inactive) | carcinogen call (mouse, strain B6C3F1, females, in feed, site: liver, lesion: several types, types named in the paper, dosed 82 weeks, study length 92 weeks): negative (inactive) | carcinogen call (mouse, strain B6C3F1, females, in feed, site: lung, lesion: several types, types named in the paper, dosed 82 weeks, study length 92 weeks): negative (inactive) | TD50 (mouse, strain B6C3F1, males, in feed, site: any site (literature study), lesion: several types, types named in the paper, dosed 82 weeks, study length 92 weeks): 618 mg/kg/day (inactive) | carcinogen call (mouse, strain B6C3F1, males, in feed, site: liver, lesion: several types, types named in the paper, dosed 82 weeks, study length 92 weeks): negative (inactive) | TD50 (mouse, strain B6C3F1, males, in feed, site: lung, lesion: several types, types named in the paper, dosed 82 weeks, study length 92 weeks): 1730 mg/kg/day (inactive)

[N-]=[N+]=CC(=O)OC[C@H](N)C(=O)O
TD50 (rat, strain Wistar, both sexes, i.p., site: kidney, lesion: one or several types, types not named, dosed 26 weeks, study length 78 weeks): 0.942 mg/kg/day | TD50 (rat, strain Wistar, both sexes, i.p., site: liver, lesion: one or several types, types not named, dosed 26 weeks, study length 78 weeks): 3.02 mg/kg/day | TD50 (rat, strain Wistar, both sexes, i.p., site: pancreas, exocrine, lesion: carcinoma, dosed 26 weeks, study length 78 weeks): 0.793 mg/kg/day | carcinogen call (rat, strain Wistar, males, i.p., site: pancreas, lesion: one or several types, types not named, dosed 104 weeks, study length 104 weeks): negative (inactive)

Cc1ncc([N+](=O)[O-])n1C
TD50 [1]: 17 mg/kg/day | TD50 (rat, strain Sprague-Dawley, females, in feed, site: mammary gland, lesion: fibroadenoma, dosed 46 weeks, study length 66 weeks): 17 mg/kg/day

ClC(Cl)C(Cl)(Cl)Cl
TD50 (mouse, strain B6C3F1, females, by gavage, site: any site (literature study), lesion: several types, types named in the paper, dosed 103 weeks, study length 104 weeks): 39.5 mg/kg/day | TD50 (mouse, strain B6C3F1, females, by gavage, site: liver, lesion: hepatocellular adenoma + hepatocellular carcinoma + neoplastic nodule, dosed 103 weeks, study length 104 weeks): 39.8 mg/kg/day | TD50 (mouse, strain B6C3F1, females, by gavage, site: liver, lesion: hepatocellular adenoma + hepatocellular carcinoma, dosed 103 weeks, study length 104 weeks): 39.8 mg/kg/day | TD50 (mouse, strain B6C3F1, females, by gavage, site: liver, lesion: hepatocellular adenoma, dosed 103 weeks, study length 104 weeks): 153 mg/kg/day | TD50 (mouse, strain B6C3F1, females, by gavage, site: liver, lesion: hepatocellular carcinoma, dosed 103 weeks, study length 104 weeks): 66.6 mg/kg/day | TD50 (mouse, strain B6C3F1, females, by gavage, site: lung, lesion: alveolar/bronchiolar adenoma + alveolar/bronchiolar carcinoma, dosed 103 weeks, study length 104 weeks): 1030 mg/kg/day | TD50 (mouse, strain B6C3F1, males, by gavage, site: any site (literature study), lesion: several types, types named in the paper, dosed 103 weeks, study length 104 weeks): 85.6 mg/kg/day | TD50 (mouse, strain B6C3F1, males, by gavage, site: liver, lesion: hepatocellular adenoma + hepatocellular carcinoma + neoplastic nodule, dosed 103 weeks, study length 104 weeks): 107 mg/kg/day | TD50 (mouse, strain B6C3F1, males, by gavage, site: liver, lesion: hepatocellular adenoma + hepatocellular carcinoma, dosed 103 weeks, study length 104 weeks): 107 mg/kg/day | TD50 (mouse, strain B6C3F1, males, by gavage, site: liver, lesion: hepatocellular carcinoma, dosed 103 weeks, study length 104 weeks): 102 mg/kg/day | TD50 (rat, strain Fischer 344, females, by gavage, site: any site (literature study), lesion: several types, types named in the paper, dosed 103 weeks, study length 104 weeks): 1660 mg/kg/day (inactive) | TD50 (rat, strain Fischer 344, males, by gavage, site: kidney, lesion: tubular-cell adenoma + tubular-cell adenocarcinoma, dosed 103 weeks, study length 104 weeks): 662 mg/kg/day | TD50 (rat, strain Fischer 344, males, by gavage, site: kidney, lesion: tubular-cell adenoma, dosed 103 weeks, study length 104 weeks): 635 mg/kg/day

Cc1cc(Cc2cc(C)cc(C(C)(C)C)c2O)c(O)c(C(C)(C)C)c1
carcinogen call (rat, strain Wistar, females, in feed, site: liver, lesion: one or several types, types not named, dosed 52 weeks, study length 52 weeks): negative (inactive) | carcinogen call (rat, strain Wistar, females, in feed, site: liver, lesion: one or several types, types not named, dosed 78 weeks, study length 78 weeks): negative (inactive) | carcinogen call (rat, strain Wistar, males, in feed, site: liver, lesion: hepatocellular adenoma, dosed 78 weeks, study length 78 weeks): negative (inactive) | carcinogen call (rat, strain Wistar, males, in feed, site: liver, lesion: one or several types, types not named, dosed 52 weeks, study length 52 weeks): negative (inactive) | TD50 (rat, strain Wistar, males, in feed, site: testis, lesion: interstitial-cell tumor, dosed 52 weeks, study length 52 weeks): 44.5 mg/kg/day (inactive) | TD50 (rat, strain Wistar, males, in feed, site: testis, lesion: interstitial-cell tumor, dosed 78 weeks, study length 78 weeks): 36.6 mg/kg/day (inactive)

CCCCN(CC)C(=O)SCCC
TD50 (mouse, strain B6AKF1, females, oral dosing, site: any site (literature study), lesion: several types, types named in the paper, dosed 76 weeks, study length 76 weeks): 219 mg/kg/day (inactive) | carcinogen call (mouse, strain B6AKF1, females, oral dosing, site: liver, lesion: hepatoma, dosed 76 weeks, study length 76 weeks): negative (inactive) | TD50 (mouse, strain B6AKF1, females, oral dosing, site: lung, lesion: adenoma, dosed 76 weeks, study length 76 weeks): 113 mg/kg/day (inactive) | carcinogen call (mouse, strain B6AKF1, males, oral dosing, site: any site (literature study), lesion: several types, types named in the paper, dosed 76 weeks, study length 76 weeks): negative (inactive) | carcinogen call (mouse, strain B6AKF1, males, oral dosing, site: liver, lesion: hepatoma, dosed 76 weeks, study length 76 weeks): negative (inactive) | carcinogen call (mouse, strain B6AKF1, males, oral dosing, site: lung, lesion: adenoma, dosed 76 weeks, study length 76 weeks): negative (inactive) | TD50 (mouse, strain B6C3F1, females, oral dosing, site: any site (literature study), lesion: several types, types named in the paper, dosed 76 weeks, study length 76 weeks): 251 mg/kg/day (inactive) | carcinogen call (mouse, strain B6C3F1, females, oral dosing, site: liver, lesion: hepatoma, dosed 76 weeks, study length 76 weeks): negative (inactive) | TD50 (mouse, strain B6C3F1, females, oral dosing, site: lung, lesion: adenoma, dosed 76 weeks, study length 76 weeks): 267 mg/kg/day (inactive) | carcinogen call (mouse, strain B6C3F1, males, oral dosing, site: any site (literature study), lesion: several types, types named in the paper, dosed 76 weeks, study length 76 weeks): negative (inactive) | carcinogen call (mouse, strain B6C3F1, males, oral dosing, site: liver, lesion: hepatoma, dosed 76 weeks, study length 76 weeks): negative (inactive) | carcinogen call (mouse, strain B6C3F1, males, oral dosing, site: lung, lesion: adenoma, dosed 76 weeks, study length 76 weeks): negative (inactive)
